Laboratory results as given in publication PMC12434536, “Radiosynthesis and Preclinical Evaluation of a Carbon-11 Labeled Phosphodiesterase 7 Inhibitor for PET Neuroimaging” (ACS Medicinal Chemistry Letters, 2025).
Like-named read-outs stand apart in the source and are kept apart here. Values belong to the compound of their own block, whether it stands above or below them.

What was measured:
PDE7A = conditions: Figure 1, literature compounds; cited from earlier work
PDE4B = conditions: Figure 1, literature compounds; cited from earlier work
PDE7 [1] = conditions: Figure 1, literature compounds; cited from earlier work
GSK3 = conditions: Figure 1, literature compounds; cited from earlier work
PDE7 [2] = conditions: cited from earlier work
PDE7A1 = conditions: Figure 1, literature compounds; cited from earlier work
PDE4A4 = conditions: Figure 1, literature compounds; cited from earlier work
PDE4 = conditions: Figure 1, literature compounds; cited from earlier work
[3] = target: T1, HEK293-PDE7B recombinant cell lines (Homo sapiens, UniProt Q9NP56); experiment: In vitro cell uptake and blocking of [11C]27; format: cell-based
T1 construct: host or cells: HEK293
Experimental: Control study: HEK293-PDE7B Recombinant cells (catalog#60412, BPS Bioscience) and HEK293 control cells (catalog# CRL-1573, ATCC) – both in logarithmic growth phase – were plated in a 24 well plate (2 × 10^5 cells per well) and cultured overnight. After 24 hr, each well was added 2 μCi of [ 11C]27, and incubated at 37 °C for 30 min or 60 min. The radioactive medium was aspirated and collected in a tube. The residual cells were washed twice with PBS, and then collected in the same tube. The cells were lysed with 1 N NaOH (200 μL) and washed twice with PBS, all the resulting solutions were collected in one tube.
The radioactivity in the collected supernatant and cell lysis buffer (600 μL/tube) was measured using a Cobra Model 5002/5003 gamma counter, respectively.
Blocking study: HEK293-PDE7B cells in logarithmic growth phase were plated in 24 well plate (2 × 10^5 cells per well) and cultured overnight. After 24 h, each well was added 2 μCi of [11C]27 with or without unlabeled reference compound 27 or BRL50481, respectively. The resulting culture medium contained 2 μCi of [ 11C]27, 1 µM of unlabeled compound 27 or BRL50481, and 5% DMSO. Cells were incubated at 37 °C for 60 min and samples were collected as described for the control study. The cell uptake was calculated according to the following eq.: cell uptake% = A lysis buffer/(A lysis buffer+Asupernate) (n = 4)

PDE7B = conditions: Figure 1, literature compounds; cited from earlier work
[4] = Lipophilicity by shake-flask method; format: physicochemical; conditions: pH 7.4, n-octanol/PBS, n = 3
Experimental: The general procedure for lipophilicity measurement was previously described, 4 with minor modification in this work. Briefly, the measurement of LogD value was carried out by mixing [11C]27 (radiochemical purity > 99%) with n-octanol (3.0 g) and PBS (0.1 M, 3.0 g) in a test tube. Both n-octanol and PBS were pre-saturated with each other prior to use. The tube was first vortexed for 5 min, followed by centrifugation (~3500-4000 rpm) for an additional 5 min. PBS and n-octanol were aliquoted, weighed and the radioactivity in each component was measured using a Cobra Model 5002/5003 gamma counter. The LogD was determined by Log [ratio of radioactivity in n-octanol and aqueous layer, respectively] (n = […]
For the evaluation of plasma protein binding,5 55.5 MBq radiotracer was added to 150 μL of plasma, which was pre-incubated under 37 °C for 5 min (n = 3). The samples were incubated at 37 °C for 10 min. To each 150 μL of radiotracer-plasma solution was added 300 μL of ice-cold PBS and all samples were briefly vortexed. […] The radioactivity (in Becquerel) was measured in the protein fraction (Aprotein), filtrate, and filter unit using a gamma counter (Wizard, PerkinElmer), Atotal was calculated as the sum of radioactivity, and the free fraction f u was calculated according to the following eq.: f u = 1-

[5] = In vitro stability of the formulated tracer (PBS with 10% ethanol; serum); format: in vitro ADME; conditions: 30, 60, 90 min; PBS containing 10% ethanol and serum of rodents, NHPs, humans
PDE7 [6] = experiment: microPET imaging in mice; format: in vivo, C57BL/6 mice; conditions: p.i.
Experimental: C57BL/6 mice (female; 8 weeks, 20–25 g) and Sprague-Dawley rats (male;
Rodent PET scans were carried out using a Genisys 4 PET (Sofie Biosciences, Culver, CA,
manufacturer’s acquisition software. Volumes of interest, including whole brain, cortex,

PDE7 [7] = experiment: PET imaging in rats (baseline and self-blocking); format: in vivo, Sprague-Dawley rats; conditions: rats
Experimental: page 10: All animal experiments were approved by the Institutional Animal Care and Use Committee of Massachusetts General Hospital or the National Institute of Radiological Sciences (Japan). C57BL/6 mice (female; 8 weeks, 20-25 g) and Sprague-Dawley rats (male; 8-9 weeks; 264-310 g) were kept on a 12 h light/12 h dark cycle and were allowed food and water ad libitum. Rodent PET scans were carried out using a […] (Sofie Biosciences, Culver, CA, USA) or a Siemens Inveon PET/CT system. Animals were kept under anesthesia using 1-2% (v/v) isoflurane in oxygen during the scan. The radiotracer (1.85 MBq for mice; 42-53 MBq for rats) was injected into the tail vein via a preinstalled catheter. A dynamic scan in 3D list mode was acquired for 60 min. The PET dynamic images were reconstructed using the manufacturer's acquisition software. Volumes of interest, including whole brain, cortex, striatum, hippocampus, thalamus and cerebellum were placed using AMIDE / PMOD software. The radioactivity was decay-corrected and expressed as standardized uptake value (SUV = radioactivity per mL tissue / injected radioactivity × bodyweight). S8

PDE7 [8] = experiment: PET imaging in nonhuman primates (baseline and self-blocking); format: in vivo, Cynomolgus monkeys; conditions: monkeys
[9] = Whole-body ex vivo biodistribution; format: in vivo; conditions: CD-1 mice
Experimental: PET imaging in nonhuman primates
Cynomolgus monkeys used for PET/CT scan were deprived of food for 12h but allowed to drink water at any time. Animals (Male, bodyweight 5.0-5.2 kg) were anesthetized with ketamine, placed into the scanner (GE Discovery Elite 690, USA), and maintained with 2% isoflurane and 98% oxygen. A solution of [11C]27 (6.24–9.84 mCi) was injected into the monkey via a venous catheter, followed by a dynamic PET scan. For the blocking study, the blocking reagent reference compound 27 (0.4 or 1.0 mg/kg, iv) was used, followed by the injection of [11C]27. Time-activity curves of each brain region were extracted from the corresponding VOIs and brain uptake was decay-corrected and expressed as SUV. biodistribution studies in miceWhole-body ex vivo
A solution of [11C]27 (1.85 MBq/100 µL) was injected into CD-1 mice via the tail vein.
Animals were sacrificed at 5, 15, 30, and 60 min post radiotracer injection (n= 4 for each time point). […] The radioactivity in these tissues was measured using a Cobra Model 5002/5003 gamma counter, and all radioactivity measurements were decay corrected based on the half-life of carbon-11. The results are expressed as the percentage of injected dose per gram of wet tissue (%ID/g).

[10] = Radiometabolite analysis in brain and plasma; format: in vivo, SD rats; conditions: n = 2; for parent fraction in plasma: rat plasma
Experimental: After intravenous injection of [11C]27 through the tail vein, SD rats were sacrificed at 5 min and 30 min post injection. Blood samples were collected and centrifuged at 14,000 rpm for 3 min at 4 °C to separate the plasma. The supernatant was collected and added to an ice-cooled test tube containing 100 μL of CH 3CN. After vortex for 10 s, the mixture was centrifuged at 14000 rpm for 3 min at 4 °C for deproteinization. The supernatant was collected, and the process was repeated until no precipitations were observed when CH3CN was added. The rat brain was immediately dissected, homogenized with 400 μL of ice-cooled CH3CN, and then centrifuged at 14,000 rpm for 5 min at 4 °C. The supernatant was collected in a test tube containing 100 μL of ice-cooled CH 3CN, and the process (vortex and centrifuge) was repeated until no precipitations were observed when CH3CN was added. An aliquot of the supernatant (100 µL), obtained from the brain homogenate, was injected into and analyzed by a radio-HPLC system. The percentage of [11C]27 to total radioactivity (corrected for decay) on the HPLC charts was calculated as (peak area for [11C]27/total peak area) × 100. The same procedure was used for metabolite analysis in plasma.
Statistical analysis was performed by Student’s two-tailed t-test, and asterisks were used to indicate statistical significance: * p < 0.05, ** p ≤ 0.01, *** p ≤ 0.001 and ****p < 0.0001.

PDE4D3 = conditions: Figure 1, literature compounds; cited from earlier work

T1 sequence (Q9NP56 whole entry): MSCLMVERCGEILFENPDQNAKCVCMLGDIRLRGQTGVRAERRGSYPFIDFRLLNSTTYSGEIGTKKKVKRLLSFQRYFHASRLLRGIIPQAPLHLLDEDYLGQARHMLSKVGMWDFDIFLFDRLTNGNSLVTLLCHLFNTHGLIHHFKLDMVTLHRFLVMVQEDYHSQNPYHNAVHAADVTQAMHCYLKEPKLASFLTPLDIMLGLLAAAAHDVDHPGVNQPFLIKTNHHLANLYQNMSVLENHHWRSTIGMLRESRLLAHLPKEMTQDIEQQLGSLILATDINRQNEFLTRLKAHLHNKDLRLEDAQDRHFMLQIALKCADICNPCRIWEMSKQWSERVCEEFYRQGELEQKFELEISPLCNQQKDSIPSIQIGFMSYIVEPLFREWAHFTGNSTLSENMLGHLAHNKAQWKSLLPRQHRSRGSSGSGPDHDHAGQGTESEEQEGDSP

SMILES: CCCCOc1nc2c(c(=O)n(C)c(=O)n2C)n1CCCC(=O)Nc1cc(C(C)(C)C)ccc1O [Compound 5]
IC50 (PDE7A): 5070 nM
IC50 (PDE4B): 5430 nM

SMILES: CCn1c(NC(C)C)nc2c(C3CCN(C(C)=O)C3)csc2c1=O (centres unmarked) [Compound 6]
IC50 (PDE7A): 15 nM
IC50 (PDE4B): 1900 nM

SMILES: CCOC(=O)c1sc(Nc2nc(N3CCNCC3)c3c(n2)N(Cc2cc(OC)c(OC)c(OC)c2)CC3)nc1C [Compound 7]
IC50 (PDE7 [1]): 6 nM

SMILES: c1ccc(-c2nc(=NCc3cccnc3)sn2-c2ccccc2)cc1 [Compound 23]
IC50 (PDE7 [1]): 380 nM
IC50 (GSK3): 1280 nM

SMILES: O=C1Nc2c(Cl)ccc(OCC[18F])c2C2(CCCCC2)N1 [[^18F]-MICA-003]
affinity to PDE7 (PDE7 [2]; ref Thomae et al.): 17 nM

SMILES: O=C(Nc1ccc(N2CCOCC2)cc1)c1cn(Cc2c(F)cccc2Cl)c2ccc(=O)[nH]c2c1=O [Compound 13]
IC50 (PDE7A1): 13 nM
IC50 (PDE4A4): > 1000 nM

SMILES: O=C1Nc2c(Br)cccc2C2(CCCCC2)N1 [Compound 19]
IC50 (PDE7 [1]): 70 nM

SMILES: COc1ccc(C2=NN(C3CCN(C(=O)N4CCOCC4)CC3)C(=O)C3CC=CCC23)cc1Cl (centres unmarked) [Compound 21]
IC50 (PDE7 [1]): 23 nM
IC50 (PDE4): 2.3 nM

SMILES: COc1ccc(-c2cc3c(n2-c2ccc(S(=O)(=O)Nc4nc(C)cc(C)n4)cc2)CCC(N2CCN(C)CC2)C3)cc1C (centres unmarked) [Compound 20]
IC50 (PDE4): 630 nM
IC50 (PDE7A): 14 nM

SMILES: Nc1nc2c(nc(Br)n2C2CCCc3cccc(Br)c32)c(=O)[nH]1 (centres unmarked) [Compound 3]
IC50 (PDE7 [1]): 1210 nM

blockade of [11C]27 cell uptake ([3]; blocker 1 μM, 60 min incubation, PDE7B overexpressing HEK293 cells, n = 4): ~55%
SMILES: Cc1ccc([N+](=O)[O-])cc1S(=O)(=O)N(C)C [Compound 17]
IC50 (PDE7A): 150 nM
IC50 (PDE7B): 12100 nM

SMILES: O=C1NS(=O)(=O)N(Cc2ccc(Cl)c(Cl)c2)c2ccccc21 [Compound 1]
IC50 (PDE7 [1]): 8000 nM
IC50 (PDE4): 19000 nM

SMILES: O=C1Nc2ccc(Cl)c(Cl)c2C2(CCCCC2)N1 [Compound 18]
IC50 (PDE7 [1]): 14 nM

logD [4]: 3.67 ± 0.04
radioactivity uptake in HEK293-PDE7B cells versus control cells ([3]; 30 and 60 min incubation): 6–7 fold
time to peak SUV in brain (PDE7 [6]): ≤ 2 min
plateau of brain uptake (PDE7 [7]; at 20 min postinjection): 0.5 SUV
highest SUV values in brain (PDE7 [7]; at approximately 5 min postinjection): > 2 SUV
peak SUV (SUVmax) in brain (PDE7 [8]; baseline): 3 SUV
time of peak SUV in brain (PDE7 [8]; p.i.): about 3 min
radioactivity accumulation in heart ([9]; 5 min p.i.): up to 24 % ID/g
cardiac uptake ([9]; within 60 min): less than 2%
intact parent fraction in brain ([10]; rat brain, 5 min): More than 98%
parent fraction in brain homogenates ([10]; rat brain, 30 min postinjection): more than 75%
parent fraction in plasma ([10]; 5 min p.i.): 70% ± 18%
parent fraction in plasma ([10]; 30 min p.i.): 19% ± 0.6%
SMILES: [11CH3]Oc1ccc(Cl)c2c1C1(CCCCC1)NC(=O)N2 [[^11C]27]
in vitro stability [5]: no obvious degradation or radiolysis was found

SMILES: O=c1[nH]c(=S)[nH]c2cc(F)c(F)cc12 [Compound 15]
IC50 (PDE7A): 74 nM

SMILES: COc1ccc(C(=O)CN2c3c(sc4ccccc34)C(=O)NS2(=O)=O)cc1 [Compound 2]
IC50 (PDE4): 30000 nM

SMILES: Cn1nc(-c2ccc(C(N)=O)cc2)s/c1=N\C1CCCCC1 [Compound 12]
IC50 (PDE7A1): 61 nM
IC50 (PDE4D3): 15300 nM

SMILES: Cn1c(-c2ccoc2)nc(=O)c2ccccc21 [Compound 16]
IC50 (PDE7A): 96 nM

SMILES: CCOC(=O)c1sc(Nc2nc(NCc3ccc(S(N)(=O)=O)cc3)c3c(ncn3CC)n2)nc1C [Compound 4]
IC50 (PDE7 [1]): 11 nM

SMILES: COc1cc(COC(=O)c2ccc(-c3ccccc3)o2)cc(OC)c1OC [Compound 11]
IC50 (PDE7A1): 5100 nM

SMILES: O=[N+]([O-])c1ccc(Sc2ccncc2)c(Cl)c1 [Compound 10]
IC50 (PDE7 [1]): 180 nM

SMILES: COc1ccccc1N1CCN(CCCC(=O)Nc2ccc(C(C)(C)C)cc2)CC1 [Compound 22]
IC50 (PDE7A): 27000 nM
IC50 (PDE4B): 96000 nM

SMILES: O=C1Nc2c(Cl)ccc(Oc3c(F)cccc3C(=O)N3CC([18F])C3)c2C2(CCCCC2)N1 [[^18F]-P7-2302]
affinity to PDE7 (PDE7 [2]; earlier 18F-isotopologue of the same spiro quinazoline structure): 0.18 nM
